Experimental data: patent publication US6527981B1, “Azole/amine oxide preservatives” (Lonza Inc., priority 1999, dated 2003)
≈ marks a conversion by molar mass, not a printed value. Read-outs that look alike come from different tables or passages of the source.

Legend:
Assay in all cases: agar dilution plate method, wood rot fungi (MIC, IC50, percent retardation)
Format in all cases: cell-based
[1] = system: T. versicolor (white rot fungi); details: for IC50 T. versicolor / T. versicolor IC50: Table2D curve fitting; for MIC: Trametes versicolor
[2] = system: G. trabeum (brown rot fungi); details: for IC50 G. trabeum / G. trabeum IC50: Table2D curve fitting; for MIC: Gloeophyllum trabeum
[3] = system: P. placenta (brown rot fungi); details: for IC50 P. placenta / P. placenta IC50: Table2D curve fitting
[4] = system: C. globosum (soft rot decay fungi); details: for IC50 C. globosum / C. globosum IC50: Table2D curve fitting; for MIC: Chaetomium globosum
[5] = amine oxide alone, 100% growth retardation
[6] = Table 8, ppm of amine oxide or didecyldimethyl ammonium chloride
[7] = ppm of amine oxide or didecyldimethyl ammonium chloride
[8] = amine oxide alone, 100% growth retardation, read-out: MIC (ppm of amine oxides) T. versicolor
[9] = amine oxide alone, 100% growth retardation, read-out: MIC (ppm of amine oxides) G. trabeum
[10] = amine oxide alone, 100% growth retardation, read-out: MIC (ppm of amine oxides) P. placenta
[11] = amine oxide alone, 100% growth retardation, read-out: MIC (ppm of amine oxides) C. globosum
[12] = azole alone, read-out: T. versicolor MIC
[13] = azole alone, read-out: G. trabeum MIC
[14] = azole alone, read-out: P. placenta MIC
[15] = azole alone, read-out: C. globosum MIC

| Compound | MIC (ppm of amine oxides) T. versicolor [1, 5] [ppm] | MIC (ppm of amine oxides) G. trabeum [2, 5] [ppm] | MIC (ppm of amine oxides) P. placenta [3, 5] | MIC (ppm of amine oxides) C. globosum [4, 5] [ppm] | Qa, concentration of amine oxide alone required to yield 100% retardation, T. versicolor ([1]; amine oxide alone) [ppm] | Qa, concentration of amine oxide alone required to yield 100% retardation, G. trabeum ([2]; amine oxide alone) [ppm] | Qa, concentration of amine oxide alone required to yield 100% retardation, P. placenta ([3]; amine oxide alone) [ppm] | MIC [1, 8] [µg/mL] | MIC [2, 9] [µg/mL] | MIC [3, 10] [µg/mL] | also measured |
| --- | --- | --- | --- | --- | --- | --- | --- | --- | --- | --- | --- |
| tallow-alkyl-di(hydroxyethyl)amine oxide [Tallow-di(hydroxyethyl)-amine oxide] | >1000 | >1000 | >1000 ppm | >1000 | – | – | – | – | – | – | – |
| coco-alkyl (C12-C16) dimethylamine oxide [Coco-DMAO] | 750 | 500 | 500-1000 ppm | >1000 | 750 | 500 | – | – | – | – | MIC T. versicolor [1, 6]: 750 ppm; IC50 T. versicolor [1, 7]: 51 ppm; MIC G. trabeum [2, 6]: 500 ppm; IC50 G. trabeum [2, 7]: 9 ppm; MIC P. placenta [3, 6]: 1000 ppm; IC50 P. placenta [3, 7]: 5 ppm; MIC C. globosum [4, 6]: >1000 ppm; IC50 C. globosum [4, 7]: 47 ppm |
| CCCCCCCCCCCCCCCCCCCCCC[N+](C)(C)[O-] [Behenyl DMAO] | >1000 | >1000 | >1000 ppm | >1000 | 1000 | 1000 | 1000 | – | – | – | – |
| CCCCCCCCCCCCCC[N+](C)(C)[O-] [Tetradecyl-DMAO, tetradecyl dimethylamine oxide] | – | – | – | – | 1000 | 1000 | 1000 | > 1000 | > 1000 | > 1000 | MIC [4, 11]: > 1000 µg/mL |
| CCCCCCCC/C=C\CCCCCCCC[N+](C)(C)[O-] [Oleyl-DMAO] | >1000 | >1000 | >1000 ppm | >1000 | – | – | – | – | – | – | – |
| CCCCCCCCCCCC[N+](C)(C)[O-] [Dodecyl-DMAO, dodecyldimethylamine oxide] | – | – | – | – | 250 | 250 | 250 | 250 (≈ 1090 µM) | 250 (≈ 1090 µM) | 250 (≈ 1090 µM) | MIC ([4]; read-out: MIC (ppm of amine oxides) C. globosum): > 1000 µg/mL |
| CCCCCCCCCC[N+](C)(C)[O-] [Decyl-DMAO, decyl dimethylamine oxide] | – | – | – | – | 750 | 250 | 500 | 750 (≈ 3720 µM) | 250 (≈ 1240 µM) | 500 (≈ 2480 µM) | MIC [4, 11]: > 1000 µg/mL |
| CCCCCCCCCCCC[N+](C)([O-])Cc1ccccc1 (stereo not shown) [Dodecyl-BMAO] | >1000 | 1000 | >1000 ppm | >1000 | – | – | – | – | – | – | – |
| CCCCCCCCCC[N+](C)(C)CCCCCCCCCC.[Cl-] [Bardac ® 2280, didecyldimethyl ammonium chloride] | – | – | – | – | – | – | – | – | – | – | MIC ([1]; Table 8, ppm of amine oxide or didecyldimethyl ammonium chloride, read-out: MIC T. versicolor): > 1000 µg/mL; IC50 T. versicolor [1, 7]: 28 ppm; MIC ([2]; Table 8, ppm of amine oxide or didecyldimethyl ammonium chloride, read-out: MIC G. trabeum): > 1000 µg/mL; IC50 G. trabeum [2, 7]: 8 ppm; MIC ([3]; Table 8, ppm of amine oxide or didecyldimethyl ammonium chloride, read-out: MIC P. placenta): 1000 µg/mL; IC50 P. placenta [3, 7]: <5 ppm; MIC ([4]; read-out: MIC C. globosum): > 1000 µg/mL; IC50 C. globosum [4, 7]: 28 ppm |
| CCCCCCCCCCCC[N+]1([O-])CCOCC1 [Lauryl morpholine N-oxide, lauryl morpholine N-oxide] | 750 | 1000 | 500 ppm | >1000 | 750 | 1000 | 500 | – | – | – | – |
| coco-alkyl-di(hydroxyethyl)amine oxide [Coco-di(hydroxyethyl)-amine oxide] | 500 | 500 | 500 ppm | >1000 | – | – | – | – | – | – | – |
| CCCC1COC(Cn2cncn2)(c2ccc(Cl)cc2Cl)O1 (stereo not shown) [Propiconazole, propiconazole] | – | – | – | – | – | – | – | – | – | – | MIC [1, 12]: 50 µg/mL (≈ 146 µM); Qb, concentration of azole alone required to yield 100% retardation, T. versicolor ([1]; azole alone): 50 ppm; T. versicolor IC50 ([1]; azole alone): 3 ppm; MIC [2, 13]: > 50 µg/mL; Qb, concentration of azole alone required to yield 100% retardation, G. trabeum ([2]; azole alone): 50 ppm; G. trabeum IC50 ([2]; azole alone): 0.9 ppm; Qb, concentration of azole alone required to yield 100% retardation, P. placenta ([3]; azole alone): 50 ppm; P. placenta IC50 ([3]; azole alone): 0.7 ppm; MIC [3, 14]: 50 µg/mL (≈ 146 µM); MIC [4, 15]: > 50 µg/mL; C. globosum IC50 ([4]; azole alone): 11.7 ppm |
| CCCCCCCCCCCCCCCCCC[N+](C)(C)[O-] [Octadecyl-DMAO, octadecyl dimethylamine oxide] | – | – | – | – | 1000 | 1000 | 1000 | > 1000 | > 1000 | > 1000 | MIC [4, 11]: > 1000 µg/mL |
| CCCCCCCC[N+](C)(C)[O-] [Octyldimethylamine oxide, octyl dimethylamine oxide] | – | – | – | – | 750 | 1000 | 1000 | 750 (≈ 4330 µM) | 1000 (≈ 5770 µM) | 1000 (≈ 5770 µM) | MIC [4, 11]: > 1000 µg/mL |
| CC(C1CC1)C(O)(Cn1cncn1)c1ccc(Cl)cc1 (stereo not shown) [Cyproconazole, cyproconazole] | – | – | – | – | – | – | – | – | – | – | MIC [1, 12]: 2.5 µg/mL (≈ 8.57 µM); T. versicolor IC50 ([1]; azole alone): 0.2 ppm; MIC [2, 13]: 2.5 µg/mL (≈ 8.57 µM); G. trabeum IC50 ([2]; azole alone): 0.3 ppm; P. placenta IC50 ([3]; azole alone): 0.7 ppm; MIC [3, 14]: 2.5 µg/mL (≈ 8.57 µM); MIC [4, 15]: 25 µg/mL (≈ 85.7 µM); C. globosum IC50 ([4]; azole alone): 2.3 ppm |
